ChEMBL document CHEMBL1201862, “PubChem BioAssay data set” (2004)
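Values below derive from 48-hour exposures of cells grown in 96-well plates, with endpoints linearly interpolated between the two concentrations bracketing the appropriate inhibition level. GI50 marks 50% less growth.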 Activity calls are given as the source filed them. No stated cut-off is given here; in the data, active = GI50 up to about 1.1 µM and inactive = higher.

Experiments:
Assay in all cases: NCI tumour cell line growth inhibition, 48 h
CCRF-CEM = tested on: CCRF-CEM
OVCAR-8 = tested on: OVCAR-8
DMS-114 = tested on: DMS-114
NCI-H460 = tested on: NCI-H460
M14 = tested on: M14
OVCAR-5 = tested on: OVCAR-5
SF-539 = tested on: SF-539
UACC-257 = tested on: UACC-257
A549 = tested on: A549
XF498 = tested on: XF498
SW-620 = tested on: SW-620
RPMI-8226 = tested on: RPMI-8226
SF-295 = tested on: SF-295
NCI-H522 = tested on: NCI-H522
SK-MEL-28 = tested on: SK-MEL-28
RXF 393 = tested on: RXF 393
HOP-62 = tested on: HOP-62
U-251 = tested on: U-251
MOLT-4 = tested on: MOLT-4
SNB-75 = tested on: SNB-75
KM12 = tested on: KM12
786-0 = tested on: 786-0
NCI-H23 = tested on: NCI-H23
TK-10 = tested on: TK-10
SF-268 = tested on: SF-268
M19-MEL = tested on: M19-MEL
CAKI-1 = tested on: CAKI-1
EKVX = tested on: EKVX
DMS-273 = tested on: DMS-273
SK-MEL-2 = tested on: SK-MEL-2
Malme-3M = tested on: Malme-3M
UACC-62 = tested on: UACC-62
HOP-92 = tested on: HOP-92
HCC 2998 = tested on: HCC 2998
SNB-19 = tested on: SNB-19
RXF 631 = tested on: RXF 631
KM-20L2 = tested on: KM-20L2
SNB-78 = tested on: SNB-78
OVCAR-3 = tested on: OVCAR-3
SK-MEL-5 = tested on: SK-MEL-5
IGROV-1 = tested on: IGROV-1
NCI-H226 = tested on: NCI-H226
A498 = tested on: A498
OVCAR-4 = tested on: OVCAR-4
DLD-1 = tested on: DLD-1
K562 = tested on: K562
UO-31 = tested on: UO-31
HL-60 = tested on: HL-60
LOX IMVI = tested on: LOX IMVI
HCT-15 = tested on: HCT-15
SN12C = tested on: SN12C
HOP-18 = tested on: HOP-18
HT-29 = tested on: HT-29
LXFL 529 = tested on: LXFL 529
HCT-116 = tested on: HCT-116
ACHN = tested on: ACHN
COLO 205 = tested on: COLO 205
SK-OV-3 = tested on: SK-OV-3
SR = tested on: SR

Measured: GI50

COc1ccc(C(=O)C(C(=O)CCC(=O)Nc2ccc(Cl)c(Cl)c2)c2ccc(OC)cc2)cc1 (stereo unspecified)
inactive: CCRF-CEM > 100 µM | OVCAR-8 > 100 µM | DMS-114 > 100 µM | NCI-H460 > 100 µM | M14 > 100 µM | OVCAR-5 > 100 µM | SF-539 > 100 µM | UACC-257 > 100 µM | A549 > 100 µM | XF498 > 100 µM | SW-620 > 100 µM | RPMI-8226 > 100 µM | SF-295 > 100 µM | NCI-H522 > 100 µM | SK-MEL-28 > 100 µM | RXF 393 > 100 µM | HOP-62 > 100 µM | U-251 > 100 µM | MOLT-4 > 100 µM | SNB-75 44.9 µM | KM12 > 100 µM | 786-0 > 100 µM | NCI-H23 > 100 µM | TK-10 > 100 µM | SF-268 > 100 µM | M19-MEL > 100 µM | CAKI-1 > 100 µM | EKVX > 100 µM | DMS-273 > 100 µM | SK-MEL-2 > 100 µM | Malme-3M > 100 µM | UACC-62 > 100 µM | HOP-92 > 100 µM | HCC 2998 > 100 µM | SNB-19 > 100 µM | RXF 631 > 100 µM | KM-20L2 > 100 µM | SNB-78 > 100 µM | OVCAR-3 > 100 µM | SK-MEL-5 > 100 µM | IGROV-1 > 100 µM | NCI-H226 > 100 µM | A498 > 100 µM | OVCAR-4 > 100 µM | DLD-1 > 100 µM | K562 > 100 µM | UO-31 > 100 µM | HL-60 97.1 µM | LOX IMVI > 100 µM | SN12C > 100 µM | HOP-18 > 100 µM | HT-29 > 100 µM | LXFL 529 > 100 µM | HCT-116 > 100 µM | ACHN > 100 µM
> 100 µM: HCT-15

O=c1oc2ccccc2n1P(=O)(n1c(=O)oc2ccccc21)n1c(=O)oc2ccccc21
inactive: CCRF-CEM > 100 µM | DMS-114 > 100 µM | NCI-H460 > 100 µM | M14 > 100 µM | COLO 205 > 100 µM | OVCAR-5 > 100 µM | SF-539 > 100 µM | UACC-257 > 100 µM | A549 > 100 µM | XF498 > 100 µM | SW-620 > 100 µM | SF-295 > 100 µM | NCI-H522 > 100 µM | SK-MEL-28 > 100 µM | RXF 393 > 100 µM | HOP-62 > 100 µM | U-251 > 100 µM | MOLT-4 > 100 µM | SNB-75 90.2 µM | KM12 > 100 µM | NCI-H23 > 100 µM | TK-10 > 100 µM | SF-268 > 100 µM | M19-MEL 60.3 µM | CAKI-1 > 100 µM | EKVX 97.7 µM | DMS-273 > 100 µM | SK-MEL-2 > 100 µM | Malme-3M > 100 µM | UACC-62 > 100 µM | HOP-92 > 100 µM | HCC 2998 > 100 µM | SNB-19 > 100 µM | RXF 631 > 100 µM | KM-20L2 > 100 µM | SNB-78 > 100 µM | OVCAR-3 > 100 µM | IGROV-1 > 100 µM | NCI-H226 > 100 µM | A498 > 100 µM | OVCAR-4 > 100 µM | DLD-1 > 100 µM | K562 > 100 µM | UO-31 > 100 µM | HL-60 > 100 µM | LOX IMVI > 100 µM | SK-OV-3 > 100 µM | SN12C > 100 µM | HT-29 > 100 µM | LXFL 529 > 100 µM | HCT-116 > 100 µM | ACHN > 100 µM | SR > 100 µM

CN(C)c1[se]nc2c1c(=O)n(C)c(=O)n2C
> 100 µM: HCT-15
inactive: CCRF-CEM > 100 µM | OVCAR-8 > 100 µM | DMS-114 > 100 µM | NCI-H460 > 100 µM | COLO 205 > 100 µM | OVCAR-5 > 100 µM | SF-539 > 100 µM | UACC-257 > 100 µM | A549 > 100 µM | XF498 > 100 µM | SW-620 > 100 µM | RPMI-8226 > 100 µM | SF-295 > 100 µM | NCI-H522 > 100 µM | SK-MEL-28 > 100 µM | HOP-62 > 100 µM | U-251 > 100 µM | MOLT-4 > 100 µM | SNB-75 58.5 µM | KM12 > 100 µM | 786-0 > 100 µM | NCI-H23 > 100 µM | TK-10 > 100 µM | SF-268 > 100 µM | M19-MEL > 100 µM | CAKI-1 > 100 µM | EKVX > 100 µM | DMS-273 > 100 µM | SK-MEL-2 > 100 µM | Malme-3M > 100 µM | UACC-62 > 100 µM | HOP-92 > 100 µM | HCC 2998 > 100 µM | SNB-19 > 100 µM | RXF 631 > 100 µM | KM-20L2 > 100 µM | SNB-78 > 100 µM | OVCAR-3 > 100 µM | SK-MEL-5 > 100 µM | IGROV-1 > 100 µM | NCI-H226 > 100 µM | A498 > 100 µM | OVCAR-4 > 100 µM | DLD-1 > 100 µM | K562 > 100 µM | UO-31 > 100 µM | HL-60 > 100 µM | LOX IMVI > 100 µM | SK-OV-3 > 100 µM | SN12C > 100 µM | HOP-18 19.4 µM | HT-29 > 100 µM | LXFL 529 > 100 µM | HCT-116 > 100 µM | ACHN > 100 µM

CN(C)CCNC(=O)c1cccc2ccc(-c3ccc(-c4ccccc4)cc3)nc12
1.98 µM: HCT-15
inactive: CCRF-CEM 2.72 µM | OVCAR-8 2.56 µM | DMS-114 1.7 µM | NCI-H460 1.61 µM | M14 1.77 µM | COLO 205 1.6 µM | OVCAR-5 3.92 µM | SF-539 1.8 µM | UACC-257 1.86 µM | A549 2.89 µM | SW-620 2.11 µM | SF-295 2.21 µM | NCI-H522 1.88 µM | SK-MEL-28 1.76 µM | RXF 393 2.22 µM | HOP-62 3.3 µM | U-251 2.14 µM | MOLT-4 1.91 µM | SNB-75 2.88 µM | KM12 2.09 µM | 786-0 1.79 µM | NCI-H23 5.69 µM | TK-10 4.48 µM | SF-268 3.37 µM | M19-MEL 1.81 µM | CAKI-1 5.13 µM | EKVX 8.17 µM | DMS-273 1.69 µM | SK-MEL-2 18.3 µM | Malme-3M 1.97 µM | UACC-62 18.2 µM | HOP-92 3.02 µM | HCC 2998 1.83 µM | SNB-19 11.4 µM | RXF 631 1.76 µM | KM-20L2 1.98 µM | SNB-78 14 µM | OVCAR-3 6.01 µM | SK-MEL-5 1.72 µM | IGROV-1 12.6 µM | NCI-H226 13.1 µM | A498 3.44 µM | OVCAR-4 2.72 µM | DLD-1 2.45 µM | K562 2.13 µM | UO-31 11.7 µM | HL-60 1.93 µM | LOX IMVI 1.63 µM | SK-OV-3 17 µM | SN12C 6.59 µM | HOP-18 12.9 µM | HT-29 1.75 µM | LXFL 529 1.83 µM | HCT-116 1.72 µM | ACHN 5.47 µM | SR 2.3 µM

[O-][n+]1c2cc(CN3CCOCC3)c(CN3CCOCC3)cc2[n+]([O-])c2c(O)cccc21
active: CCRF-CEM 0.427 µM | NCI-H460 0.993 µM | SF-539 1.08 µM | SF-295 0.478 µM | RXF 393 0.968 µM | MOLT-4 0.627 µM | SF-268 1.05 µM | HL-60 0.807 µM | SR 0.193 µM
inactive: OVCAR-8 2.48 µM | M14 3.64 µM | COLO 205 5 µM | OVCAR-5 4.38 µM | UACC-257 6.24 µM | XF498 1.83 µM | SW-620 2.94 µM | RPMI-8226 3.32 µM | NCI-H522 1.88 µM | SK-MEL-28 14 µM | HOP-62 3.75 µM | U-251 3.25 µM | SNB-75 3.46 µM | KM12 4.4 µM | 786-0 1.41 µM | NCI-H23 2.37 µM | TK-10 > 20.4 µM | M19-MEL 2.9 µM | EKVX 6.53 µM | DMS-273 3.44 µM | SK-MEL-2 5.56 µM | Malme-3M 8.73 µM | UACC-62 4.21 µM | HOP-92 2 µM | SNB-19 9.44 µM | RXF 631 16.1 µM | KM-20L2 5.93 µM | SNB-78 3.18 µM | OVCAR-3 5.15 µM | IGROV-1 5 µM | NCI-H226 8.65 µM | A498 11 µM | OVCAR-4 4.29 µM | DLD-1 2.12 µM | K562 2.61 µM | UO-31 3.72 µM | LOX IMVI 4.02 µM | SK-OV-3 4.13 µM | SN12C 2.87 µM | HOP-18 3.55 µM | HT-29 3.91 µM | LXFL 529 3.1 µM | HCT-116 1.81 µM | ACHN 4.07 µM
3.44 µM: HCT-15
